In brackets after ≈: the same amount, converted by molar mass. Where two headings read alike, the source gives them in different places.
Experiments:
[1] = tested on: P. falciparum NF54 (PfNF54) parasites; experiment: In vitro antiplasmodial asexual blood stage activity, pLDH assay, NF54; format: cell-based, Plasmodium falciparum
[2] = tested on: Chinese hamster ovary cells; experiment: Cytotoxicity, MTT assay, CHO; format: cell-based; conditions: Cricetulus griseus, read-out: CHO IC50
[3] = tested on: P. falciparum K1 (PfK1) strain; experiment: In vitro antiplasmodial asexual blood stage activity, pLDH assay, K1; format: cell-based; conditions: Plasmodium falciparum
physchem [4] = conditions: 25 °C, pH 6.5, aqueous buffer, thermodynamic from solid
in vitro [5] = conditions: mouse, pH 7.4
in vitro [6] = conditions: human, pH 7.4
in vivo = conditions: male, Balb/C, mouse, po, 10 mg/kg
physchem [7] = conditions: n-octanol/phosphate buffer (1:1), pH 7.4
[8] = Plasmodium falciparum, NF54, 72 h, read-out: Pf ABS IC50 NF54
[9] = Plasmodium falciparum, NF54, read-out: PfNF54 IC50
[10] = K1, 72 h, read-out: Pf ABS IC50 K1
[11] = Plasmodium falciparum, NF54, 72 h, pLDH assay, 72 h, read-out: Pf ABS IC50 NF54
[12] = Plasmodium falciparum, NF54, mean, supplement, read-out: PfNF54 IC50
[13] = K1, mean, supplement, read-out: PfK1 IC50
[14] = K1, pLDH assay, 72 h, read-out: Pf ABS IC50 K1

| IC50 [1, 8] [nM] | IC50 [1, 9] [nM] | IC50 [3, 10] [nM] | IC50 ([3]; K1, read-out: PfK1 IC50) [nM] | Structure (SMILES) | IC50 [2] [µM] | IC50 [1, 11] [nM] | IC50 [1, 12] [nM] | solubility thermodynamic at 20 h (physchem [4]; aqueous solution) [µM] | other results |
| --- | --- | --- | --- | --- | --- | --- | --- | --- | --- |
|  |  |  |  | CCN(CC)CCCC(C)Nc1ccnc2cc(Cl)ccc12 (centres unmarked) [Chloroquine, reference compound] |  |  |  |  | IC50 ([1]; Plasmodium falciparum, NF54, 72 h, read-out: PfNF54 IC50): 11 nM |
| 42 | 42.5 |  |  | C[S+]([O-])c1cccc(-c2ccc3nccc(-c4ccnc(C(F)(F)F)c4)c3n2)c1 (centres unmarked) [Compound 11, 2-(3-Methylsulfinylphenyl)-8-[2-(trifluoromethyl)pyridin-4-yl]-1,5-naphthyridine] | 14 |  |  |  |  |
| 77 | 77.4 |  |  | Cn1ccc(-c2ccc3nccc(-c4ccnc(C(F)(F)F)c4)c3n2)cc1=O [Compound 13, 1-Methyl-4-[8-[2-(trifluoromethyl)pyridin-4-yl]-1,5-naphthyridin-2-yl]pyridin-2-one] |  |  |  |  |  |
| 310 | 310 | 1600 | 1620 | NC(=O)Cc1cccc(-c2ccc3nccc(-c4ccnc(C(F)(F)F)c4)c3n2)c1 [Compound 15, 2-[3-[8-[2-(Trifluoromethyl)pyridin-4-yl]-1,5-naphthyridin-2-yl]phenyl]acetamide] | > 50 |  |  |  |  |
| 51 | 50.8 | 350 | 355 | O[C@H]1CN(c2cc(-c3ccc4nccc(-c5ccnc(C(F)(F)F)c5)c4n3)ccn2)C[C@@H]1O [Compound 16, (3S,4S)-1-[4-[8-[2-(Trifluoromethyl)pyridin-4-yl]-1,5-naphthyridin-2-yl]pyridin-2-yl]pyrrolidine-3,4-diol] | 28 |  |  |  |  |
| 140 | 144 | 460 | 463 | CC(C)(O)C(=O)N1CC=C(c2ccc3nccc(-c4ccnc(C(F)(F)F)c4)c3n2)CC1 [Compound 17, 2-Hydroxy-2-methyl-1-[4-[8-[2-(trifluoromethyl)pyridin-4-yl]-1,5-naphthyridin-2-yl]-3,6-dihydro-2H-pyridin-1-yl]propan-1-one] | > 50 |  |  |  |  |
|  |  |  |  | CS(=O)(=O)c1cccc(-c2ccc3nccc(-c4cccc(S(C)(=O)=O)c4)c3n2)c1 [Compound 18, 2,8-Bis(3-methylsulfonylphenyl)-1,5-naphthyridine] |  | 16 | 17.2 |  | IC50 ([2]; one biological replicate): 37 µM; solubility thermodynamic at 20 h (physchem [4]): < 5 µM; IC50 ([1]; pLDH assay, 72 h, read-out: Pf ABS IC50 NF54): 17 nM |
| 410 | 411 |  |  | Cn1cc(-c2ccc3nccc(-c4cccc(S(C)(=O)=O)c4)c3n2)ccc1=O [Compound 20, 1-Methyl-5-[8-(3-methylsulfonylphenyl)-1,5-naphthyridin-2-yl]pyridin-2-one] | 34 |  |  |  |  |
| 140 | 144 | 280 | 277 | Cn1ccc(-c2ccc3nccc(-c4ccnc(C(C)(C)O)c4)c3n2)cc1=O [Compound 23, 4-[8-[2-(2-Hydroxypropan-2-yl)pyridin-4-yl]-1,5-naphthyridin-2-yl]-1-methylpyridin-2-one] | > 50 |  |  |  |  |
|  |  |  |  | Cn1ccc(-c2ccc3nccc(-c4ccc(C(C)(C)O)nc4)c3n2)cc1=O [Compound 24, 4-[8-[6-(2-Hydroxypropan-2-yl)pyridin-3-yl]-1,5-naphthyridin-2-yl]-1-methylpyridin-2-one] |  | 36 | 35.9 | 175 (≈ 65.2 µg/mL) | CLint scaled at 1 µM (in vitro [5]; microsomes): < 45.7 mL/min/kg; CLint scaled at 1 µM (in vitro [5]; mouse liver microsomes): < 59.4 mL/min/kg; CLint scaled at 1 µM (in vitro [6]; microsomes): < 13.4 mL/min/kg; CLint scaled at 1 µM (in vitro [6]; pooled human liver microsomes): < 17.4 mL/min/kg; bioavailability (in vivo): 10%; IC50 ([2]; one biological replicate): 12 µM; IC50 [3, 13]: 107 nM; IC50 [3, 14]: 110 nM; logD at 3 h (physchem [7]): 1.98; in vivo mouse CLb (total body clearance from whole blood, iv 3 mg/kg): 110 mL/min/kg; in vivo mouse CLu (unbound blood clearance from CLb and plasma protein binding): 379 mL/min/kg |
|  |  |  |  | Cn1ccc(-c2ccc3nccc(-c4ccc(C(C)(C)O)cc4)c3n2)cc1=O [Compound 25, 4-[8-[4-(2-Hydroxypropan-2-yl)phenyl]-1,5-naphthyridin-2-yl]-1-methylpyridin-2-one] |  | 2100 | 2160 | 190 (≈ 70.6 µg/mL) |  |
| 37 | 37.6 | 150 | 151 | CC(C)(O)c1ccc(-c2ccnc3ccc(-c4cccc(CC(N)=O)c4)nc23)cn1 [Compound 26, 2-[3-[8-[6-(2-Hydroxypropan-2-yl)pyridin-3-yl]-1,5-naphthyridin-2-yl]phenyl]acetamide] | 30 |  |  |  |  |
|  |  |  |  | CC(C)(O)c1ccc(-c2ccnc3ccc(-c4ccnc(N5C[C@H](O)[C@@H](O)C5)c4)nc23)cn1 [Compound 28, (3S,4S)-1-[4-[8-[6-(2-Hydroxypropan-2-yl)pyridin-3-yl]-1,5-naphthyridin-2-yl]pyridin-2-yl]pyrrolidine-3,4-diol] |  | 43 | 42.9 | 20 (≈ 8.87 µg/mL) | IC50 ([2]; one biological replicate): > 50 µM; IC50 [3, 13]: 52.7 nM; IC50 [3, 14]: 53 nM |
| 46 | 46.4 | 1600 | 1630 | CC(C)(O)c1ccc(-c2ccnc3ccc(-c4cccc(CS(C)(=O)=O)c4)nc23)cn1 [Compound 29, 2-[5-[6-[3-(Methylsulfonylmethyl)phenyl]-1,5-naphthyridin-4-yl]pyridin-2-yl]propan-2-ol] | > 50 |  |  |  |  |
|  |  |  |  | CC(C)(O)c1cccc(-c2ccc3nccc(-c4ccc(C(C)(C)O)nc4)c3n2)c1 [Compound 30, 2-[3-[8-[6-(2-Hydroxypropan-2-yl)pyridin-3-yl]-1,5-naphthyridin-2-yl]phenyl]propan-2-ol] |  | 100 | 105 | 55 (≈ 22 µg/mL) | IC50 ([2]; one biological replicate): 3 µM; IC50 [3, 13]: 34.5 nM; IC50 [3, 14]: 34 nM |
|  |  |  |  | CC(C)(O)c1ccc(-c2ccnc3ccc(-c4cccc(C(C)(C)O)c4F)nc23)cn1 [Compound 31, 2-[2-Fluoro-3-[8-[6-(2-hydroxypropan-2-yl)pyridin-3-yl]-1,5-naphthyridin-2-yl]phenyl]propan-2-ol] |  | 2300 | 2360 | 10 (≈ 4.17 µg/mL) | IC50 [3, 13]: 472 nM; IC50 [3, 14]: 470 nM |
|  |  |  |  | CC(C)(O)c1ccc(-c2ccnc3ccc(-c4ccc(C(F)(F)F)nc4)nc23)cn1 [Compound 32, 2-[5-[6-[6-(Trifluoromethyl)pyridin-3-yl]-1,5-naphthyridin-4-yl]pyridin-2-yl]propan-2-ol] |  | 210 | 207 | < 5 |  |
|  |  |  |  | Cn1cc(-c2ccnc3ccc(-c4cccc(S(C)(=O)=O)c4)nc23)ccc1=O [Compound 33, 1-Methyl-5-[6-(3-methylsulfonylphenyl)-1,5-naphthyridin-4-yl]pyridin-2-one] |  | 96 | 95.6 | 55 (≈ 21.5 µg/mL) |  |
|  |  |  |  | CS(=O)(=O)c1cccc(-c2ccc3nccc(-c4ccc(C(=O)N5CC[C@H](N)C5)cc4)c3n2)c1 [Compound 38, [(3S)-3-Aminopyrrolidin-1-yl]-[4-[6-(3-methylsulfonylphenyl)-1,5-naphthyridin-4-yl]phenyl]methanone] |  | 48 | 48.6 | 180 (≈ 85.1 µg/mL) | IC50 ([2]; one biological replicate): 28 µM |
|  |  |  |  | CC[C@H]1CN2CCc3cc(OC)c(OC)cc3[C@@H]2C[C@@H]1C[C@H]1NCCc2cc(OC)c(OC)cc21 [Emetine, reference compound] | < 0.003 |  |  |  |  |

| Structure (SMILES) | IC50 [1, 8] [nM] | IC50 [1, 9] [nM] | IC50 [3, 10] [nM] | IC50 ([3]; K1, read-out: PfK1 IC50) [nM] | IC50 [2] [µM] | IC50 [1, 11] [nM] | IC50 [1, 12] [nM] | solubility thermodynamic at 20 h (physchem [4]; aqueous solution) [µM] | other results |
| --- | --- | --- | --- | --- | --- | --- | --- | --- | --- |
| O=c1cc(-c2ccc3nccc(-c4ccnc(C(F)(F)F)c4)c3n2)ccn1CCO [Compound 14, 1-(2-Hydroxyethyl)-4-[8-[2-(trifluoromethyl)pyridin-4-yl]-1,5-naphthyridin-2-yl]pyridin-2-one] |  | 131 | 340 | 344 |  |  |  |  |  |
| Cn1ccc(-c2ccnc3ccc(-c4cccc(S(C)(=O)=O)c4)nc23)cc1=O [Compound 34, 1-Methyl-4-[6-(3-methylsulfonylphenyl)-1,5-naphthyridin-4-yl]pyridin-2-one] |  | 173 | 340 | 338 | 44 |  |  | 175 (≈ 68.5 µg/mL) |  |
| CS(=O)(=O)c1cccc(-c2ccc3nccc(-c4ccn(CCO)c(=O)c4)c3n2)c1 [Compound 35, 1-(2-Hydroxyethyl)-4-[6-(3-methylsulfonylphenyl)-1,5-naphthyridin-4-yl]pyridin-2-one] | 200 | 200 |  |  | > 50 |  |  | 195 (≈ 82.2 µg/mL) |  |
| CS(=O)(=O)c1cccc(-c2ccc3nccc(-c4cccc(C(=O)N5CCC(O)C5)c4)c3n2)c1 (centres unmarked) [Compound 36, [3-[6-(3-Methylsulfonylphenyl)-1,5-naphthyridin-4-yl]phenyl]-(3-hydroxypyrrolidin-1-yl)methanone] | 220 | 217 | 240 | 244 | 33 |  |  | 50 (≈ 23.7 µg/mL) |  |

Source: article PMC12557380, “Optimization of 2,8-Diaryl-1,5-naphthyridines as Plasmodium falciparum Phosphatidylinositol 4‑Kinase Inhibitors with Improved ADME Profiles and In Vivo Efficacy” (Journal of Medicinal Chemistry, 2025)
